One assay has as its target T1, CYP2D6 (Homo sapiens, UniProt P10635).
T1 construct: from tissue; host or cells: human liver microsomes
Description: biochemical. The class given is in vitro ADME. Put shortly:
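Read-out is LC-MS/MS of supernatant, giving % inhibition and IC50 relative to a no-inhibitor ACN/DMSO control. Compound and substrate pool were pre-incubated 20 min at 37° C with human liver microsomes (working stock 0.253 mg/mL) before a 10 min NADPH-driven reaction, quenched with cold ACN.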

The target of another assay is T2, CYP3A4 (Homo sapiens, UniProt P08684).
T2 construct: from tissue; host or cells: human liver microsomes
Description: CYP inhibition assay, human liver microsomes, substrate midazolam. The class given is in vitro ADME. Conditions: human liver microsomes, 10 min incubation, LC-MS/MS; read-out: CYP Inhibition Activity (IC50/nM) CYP3A4. An outline of the steps:
(§1)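 Metabolite formation measured by LC-MS/MS after quench with cold acetonitrile, yielding % inhibition and IC50. Reactions ran 10 min at 37° C after NADPH addition, following 20 min pre-incubation of substrate pool and inhibitor with human liver microsomes.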
For orientation: Liver microsomes are a subcellular fraction often used to study metabolism.

For a further assay, the target named is T3, CYP1A2 (Homo sapiens, UniProt P05177).
T3 construct: from tissue; host or cells: human liver microsomes
T3 sequence (P05177 1-516): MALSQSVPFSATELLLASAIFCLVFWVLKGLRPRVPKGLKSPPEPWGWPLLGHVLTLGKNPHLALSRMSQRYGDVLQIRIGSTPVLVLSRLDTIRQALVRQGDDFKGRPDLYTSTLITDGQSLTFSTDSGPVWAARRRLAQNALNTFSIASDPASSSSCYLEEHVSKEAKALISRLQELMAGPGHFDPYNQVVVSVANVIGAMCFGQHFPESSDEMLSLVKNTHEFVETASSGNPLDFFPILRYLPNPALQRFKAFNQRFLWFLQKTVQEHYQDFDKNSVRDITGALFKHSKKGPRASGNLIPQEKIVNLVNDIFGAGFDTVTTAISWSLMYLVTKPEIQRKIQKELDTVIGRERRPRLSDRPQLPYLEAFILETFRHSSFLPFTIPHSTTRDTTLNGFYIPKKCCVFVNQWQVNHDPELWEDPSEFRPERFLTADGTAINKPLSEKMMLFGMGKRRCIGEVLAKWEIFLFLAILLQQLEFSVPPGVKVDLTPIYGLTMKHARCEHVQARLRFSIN
Description: CYP inhibition assay, human liver microsomes, substrate tacrine. The conditions noted are these: human liver microsomes, 10 min incubation, LC-MS/MS; read-out: CYP Inhibition Activity (IC50/nM) CYP1A2. The class given is in vitro ADME. An outline of the steps:
as §1

The next assay addresses SRPK1 (Homo sapiens, UniProt Q96SB4). Description: In vitro SRPK1 assay (Kinase-Glo). The class given is biochemical.
Assay [1] deals with laser-induced choroidal neovascularisation (CNV) lesions. Description: In vivo angiogenesis assay: laser-induced choroidal neovascularisation (CNV). The arrangement: species or system C57/B6 mice. Conditions: laser-induced mouse model of CNV; topical eye drops twice daily, 2 mg/mL, 10 μl; one week; FIG. 1(a). The method, then: In Vivo Angiogenesis Assay: Laser-Induced Choroidal Neovascularisation (CNV) Protocol
6-8 week-old female C57/B6 mice were anesthetized with an intraperitoneal injection of a mixture of 50 mg/kg ketamine and 0.5 mg/kg medetomidine. The pupils were immediately dilated by topical (eyedrop) application with a dilator such as 5% phenylephrine hydrochloride and 1% tropicamide. Four photocoagulation lesions were delivered with a green Merilas 532α laser (450 mW, 130 ms) between the “large” retinal vessels in clear space with no vessels in a peripapillary distribution at a distance of 1-2 disc-diameters in each eye. Only clean laser lesions with a subretinal bubble at the time of treatment were included in the study. Immediately following laser photocoagulation the animals were given topical eye drops of candidate compounds twice daily (2 mg/mL, 10 μl, eyes held for 30 seconds to prevent animal wiping drop away).
After one week, mice were anesthetized with an intraperitoneal injection of a mixture of 50 mg/kg ketamine and 0.5 mg/kg medetomidine. The pupils were immediately dilated by topical (eyedrop) application with a dilator such as 5% phenylephrine hydrochloride and 1% tropicamide. Mice were administered an intraperitoneal injection of sodium fluorescein (10%). […]
The optical density of each well was measured immediately, using a microplate reader set to 450 nm.

In a further assay the target is T4, CYP2C9 (Homo sapiens, UniProt P11712).
T4 construct: from tissue; host or cells: human liver microsomes
Description: CYP inhibition assay, human liver microsomes, substrate diclofenac. The conditions noted are these: human liver microsomes, 10 min incubation, LC-MS/MS; read-out: CYP Inhibition Activity (IC50/nM) CYP2C9. Format: in vitro ADME. An outline of the steps: as §1

A further assay has as its target T5, CYP2C19 (Homo sapiens, UniProt P33261).
T5 construct: from tissue; host or cells: human liver microsomes
Nature of the assay: CYP inhibition assay, human liver microsomes, substrate S-mephenytoin. The class given is in vitro ADME. Conditions: human liver microsomes, 10 min incubation, LC-MS/MS; read-out: CYP Inhibition Activity (IC50/nM) CYP2C19. Put shortly: as §1

Structures are written as SMILES.

Sequence of SRPK1 (Q96SB4 whole entry, species assumed): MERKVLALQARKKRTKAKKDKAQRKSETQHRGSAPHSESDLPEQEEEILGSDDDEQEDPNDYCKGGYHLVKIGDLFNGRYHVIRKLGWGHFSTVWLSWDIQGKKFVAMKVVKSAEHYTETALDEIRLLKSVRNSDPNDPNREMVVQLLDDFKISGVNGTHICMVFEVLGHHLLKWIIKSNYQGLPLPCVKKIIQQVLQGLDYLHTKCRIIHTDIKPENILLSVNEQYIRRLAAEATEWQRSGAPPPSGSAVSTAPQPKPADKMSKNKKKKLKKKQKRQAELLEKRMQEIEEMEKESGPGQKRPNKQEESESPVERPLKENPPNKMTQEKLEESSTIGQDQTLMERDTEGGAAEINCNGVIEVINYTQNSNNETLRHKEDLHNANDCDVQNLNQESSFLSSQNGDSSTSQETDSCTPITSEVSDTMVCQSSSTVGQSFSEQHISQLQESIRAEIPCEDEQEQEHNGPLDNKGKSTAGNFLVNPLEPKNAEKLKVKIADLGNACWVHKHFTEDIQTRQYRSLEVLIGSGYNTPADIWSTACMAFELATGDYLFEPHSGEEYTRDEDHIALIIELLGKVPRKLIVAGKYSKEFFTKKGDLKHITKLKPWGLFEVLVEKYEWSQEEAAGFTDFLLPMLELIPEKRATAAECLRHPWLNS
T5 sequence (P33261 whole entry): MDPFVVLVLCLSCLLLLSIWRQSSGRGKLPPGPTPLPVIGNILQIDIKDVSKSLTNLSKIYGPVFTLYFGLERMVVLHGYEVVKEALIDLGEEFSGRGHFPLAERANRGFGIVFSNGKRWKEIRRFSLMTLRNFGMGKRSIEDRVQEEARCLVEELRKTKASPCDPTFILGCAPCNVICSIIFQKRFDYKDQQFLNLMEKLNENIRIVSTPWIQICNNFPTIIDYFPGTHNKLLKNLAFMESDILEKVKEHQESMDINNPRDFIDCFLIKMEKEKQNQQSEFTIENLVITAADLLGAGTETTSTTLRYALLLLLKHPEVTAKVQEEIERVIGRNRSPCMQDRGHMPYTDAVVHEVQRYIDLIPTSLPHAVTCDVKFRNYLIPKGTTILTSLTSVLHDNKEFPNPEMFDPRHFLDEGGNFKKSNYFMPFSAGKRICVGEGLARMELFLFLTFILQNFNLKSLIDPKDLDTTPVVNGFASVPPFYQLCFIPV
T1 sequence (P10635 whole entry): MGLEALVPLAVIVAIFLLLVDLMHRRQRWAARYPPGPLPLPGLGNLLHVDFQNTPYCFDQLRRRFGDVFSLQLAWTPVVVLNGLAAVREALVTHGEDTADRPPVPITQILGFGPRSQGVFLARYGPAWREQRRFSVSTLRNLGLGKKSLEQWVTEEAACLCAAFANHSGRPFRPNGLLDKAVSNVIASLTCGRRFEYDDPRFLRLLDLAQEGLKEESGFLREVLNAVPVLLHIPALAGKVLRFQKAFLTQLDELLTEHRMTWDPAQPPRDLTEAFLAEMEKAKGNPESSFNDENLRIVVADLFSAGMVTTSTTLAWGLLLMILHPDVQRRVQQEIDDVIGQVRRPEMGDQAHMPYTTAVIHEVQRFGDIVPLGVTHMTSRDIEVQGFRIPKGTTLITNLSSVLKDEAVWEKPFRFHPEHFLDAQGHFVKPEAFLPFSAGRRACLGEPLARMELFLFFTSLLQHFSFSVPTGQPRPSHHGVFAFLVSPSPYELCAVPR
T4 sequence (P11712 whole entry): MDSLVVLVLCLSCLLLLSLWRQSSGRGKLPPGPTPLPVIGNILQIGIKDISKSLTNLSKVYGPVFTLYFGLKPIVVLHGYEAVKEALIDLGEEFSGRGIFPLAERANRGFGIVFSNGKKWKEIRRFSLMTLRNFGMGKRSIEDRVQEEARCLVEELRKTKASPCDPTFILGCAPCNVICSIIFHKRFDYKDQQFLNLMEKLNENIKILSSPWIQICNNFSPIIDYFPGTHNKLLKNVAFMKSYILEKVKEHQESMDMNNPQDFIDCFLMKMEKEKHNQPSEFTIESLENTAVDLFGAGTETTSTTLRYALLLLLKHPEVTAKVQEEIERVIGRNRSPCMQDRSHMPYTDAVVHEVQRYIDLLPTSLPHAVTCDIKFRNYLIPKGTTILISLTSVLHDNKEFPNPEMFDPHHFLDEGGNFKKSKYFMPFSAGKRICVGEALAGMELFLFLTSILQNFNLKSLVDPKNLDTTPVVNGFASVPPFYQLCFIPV
T2 sequence (P08684 whole entry): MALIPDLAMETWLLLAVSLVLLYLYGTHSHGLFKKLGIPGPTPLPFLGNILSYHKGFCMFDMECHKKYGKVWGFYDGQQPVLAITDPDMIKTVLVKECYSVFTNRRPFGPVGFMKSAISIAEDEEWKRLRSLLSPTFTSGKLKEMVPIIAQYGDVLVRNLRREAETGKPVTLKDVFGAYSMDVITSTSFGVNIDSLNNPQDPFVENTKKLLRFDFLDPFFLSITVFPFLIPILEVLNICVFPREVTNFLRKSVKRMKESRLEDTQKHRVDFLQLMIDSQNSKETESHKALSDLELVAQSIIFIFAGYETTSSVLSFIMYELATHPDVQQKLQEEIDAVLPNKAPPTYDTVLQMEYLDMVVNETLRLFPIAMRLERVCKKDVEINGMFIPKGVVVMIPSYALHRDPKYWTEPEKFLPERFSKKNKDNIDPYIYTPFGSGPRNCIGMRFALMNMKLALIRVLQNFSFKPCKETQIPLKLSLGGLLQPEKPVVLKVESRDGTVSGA

On to `CC1(O)CCN(c2ccc(Cl)cc2NC(=O)c2ccc(C3CCOCC3)o2)CC1` [Example 12], for which the IC50 against CYP2D6 worked out at 23.2 µM; on CYP3A4, 2660 nM; at CYP1A2, 13900 nM; against SRPK1 it was 0.3 nM; on CYP2C9 it was 6980 nM; on CYP2C19 it was 11800 nM. Further, the “anti-angiogenic activity on lesion size” value in assay [1] was “improved anti-angiogenic activity on lesion size and the same efficacy as reference compounds”.
Consider `CC1(N)CCN(c2ccc(C(F)(F)F)cc2NC(=O)c2ccc(C3CCOCC3)o2)CC1` [Example 101, N-(2-(4-amino-4-methylpiperidin-1-yl)-5-(trifluoromethyl)-phenyl)-5-(tetrahydro-2H-pyran-4-yl)furan-2-carboxamide], for which the IC50 at CYP2D6 is 4.8 µM; at CYP3A4, greater than 30000 nM; on CYP1A2 it was greater than 30000 nM; at SRPK1 it was 15.1 nM; on CYP2C9, greater than 30000 nM; at CYP2C19, greater than 30000 nM.
For `O=C(Nc1cc(C(F)(F)F)ccc1N1CCC(O)(C2CC2)CC1)c1ccc(C2CCOCC2)o1` [Example 21, N-(2-(4-cyclopropyl-4-hydroxypiperidin-1-yl)-5-(trifluoromethyl)-phenyl)-5-(tetrahydro-2H-pyran-4-yl)furan-2-carboxamide], the IC50 is 7.14 µM on CYP2D6; 20900 nM on CYP3A4; greater than 30000 nM at CYP1A2; 9 nM at SRPK1; 6350 nM on CYP2C9; 6140 nM at CYP2C19.
Regarding `CC1(O)CCCN(c2ccc(Cl)cc2NC(=O)c2ccc(C3CCOCC3)o2)CC1` (racemic) [Example 41, N-(5-chloro-2-(4-hydroxy-4-methylazepan-1-yl)phenyl)-5-(tetrahydro-2H-pyran-4-yl)furan-2-carboxamide], the IC50 at CYP2D6 is 0.38 µM; at CYP3A4, 2610 nM; on CYP1A2, 2660 nM; against SRPK1 it was 3 nM; at CYP2C9 it was 810 nM; at CYP2C19, 370 nM.
`CC1(C(=O)O)CCN(c2ccc(C(F)(F)F)cc2NC(=O)c2ccc(-c3ccncc3)o2)CC1` [Example 26, 4-methyl-1-(2-(5-(pyridin-4-yl)furan-2-carboxamido)-4-(trifluoromethyl)phenyl)-piperidine-4-carboxylic acid]: the IC50 is greater than 30 µM on CYP2D6; 4440 nM on CYP3A4; greater than 30000 nM on CYP1A2; 5.6 nM at SRPK1; 2150 nM at CYP2C9; 12900 nM at CYP2C19.
As for `CC1(O)CCN(c2ccc(OC(F)(F)F)cc2NC(=O)c2ccc(C3CCOCC3)o2)CC1` [Example 16, N-(2-(4-hydroxy-4-methylpiperidin-1-yl)-5-(trifluoromethoxy)phenyl)-5-(tetrahydro-2H-pyran-4-yl)furan-2-carboxamide], the IC50 at CYP2D6 is 10.5 µM; on CYP3A4 it was 27300 nM; on CYP1A2, 26700 nM; at SRPK1 it was 16 nM; on CYP2C9, 5690 nM; at CYP2C19, 9550 nM.
Turning to `CC1(C(=O)N2CCCC2)CCN(c2ccc(C(F)(F)F)cc2NC(=O)c2ccc(C3CCOCC3)o2)CC1` [Example 88, N-(2-(4-methyl-4-(pyrrolidine-1-carbonyl)-piperidin-1-yl)-5-(trifluoromethyl)-phenyl)-5-(tetrahydro-2H-pyran-4-yl)furan-2-carboxamide], the IC50 on CYP2D6 is 10.3 µM; at CYP3A4 it was 1000 nM; on CYP1A2, greater than 30000 nM; against SRPK1, 11 nM; on CYP2C9, 300 nM; on CYP2C19, 4600 nM.
As to `CC1(CN2CCOCC2)CCN(c2ccc(C(F)(F)F)cc2NC(=O)c2ccc(C3CCOCC3)o2)CC1` [Example 97, N-(2-(4-methyl-4-(morpholinomethyl)piperidin-1-yl)-5-(trifluoromethyl)phenyl)-5-(tetrahydro-2H-pyran-4-yl)furan-2-carboxamide], the IC50 at CYP2D6 was 8.1 µM; at CYP3A4 it was 9400 nM; on CYP1A2 it was greater than 30000 nM; against SRPK1, 6 nM; at CYP2C9, 200 nM; on CYP2C19, 2700 nM.
`CC1(O)CCN(c2ccc(C(F)(F)F)cc2NC(=O)c2ccc(C3CCOCC3)o2)C1` (racemic) [Example 54, N-(2-(3-hydroxy-3-methylpyrrolidin-1-yl)-5-(trifluoromethyl)-phenyl)-5-(tetrahydro-2H-pyran-4-yl)furan-2-carboxamide]: the IC50 was 7.14 µM against CYP2D6; 20900 nM on CYP3A4; greater than 30000 nM on CYP1A2; 35 nM at SRPK1; 6350 nM at CYP2C9; 6140 nM at CYP2C19.
`Cc1ccc(N2CCC(C)(C(=O)N(C)C)CC2)c(NC(=O)c2ccc(C3CCOCC3)o2)c1` [Example 87, N,N,4-trimethyl-1-(4-methyl-2-(5-(tetrahydro-2H-pyran-4-yl)furan-2-carboxamido)phenyl)piperidine-4-carboxamide]: the IC50 at CYP2D6 is greater than 30 µM; at CYP3A4, 5900 nM; on CYP1A2, greater than 30000 nM; against SRPK1 it was 27 nM; on CYP2C9, 800 nM; on CYP2C19, 14300 nM.
On to `CN(C)CC1(C)CCN(c2ccc(Cl)cc2NC(=O)c2ccc(C3CCOCC3)o2)CC1` [Example 91, N-(5-chloro-2-(4-((dimethylamino)methyl)-4-methylpiperidin-1-yl)phenyl)-5-(tetrahydro-2H-pyran-4-yl)furan-2-carboxamide], for which the IC50 is 0.2 µM at CYP2D6; 19000 nM at CYP3A4; greater than 30000 nM at CYP1A2; 41 nM at SRPK1; 14900 nM at CYP2C9; 20800 nM on CYP2C19.
For `CC1(O)CCN(c2ccc(C(F)(F)F)cc2NC(=O)c2ccc(-c3ccncc3)o2)CC1` [Example 4, N-(2-(4-hydroxy-4-methylpiperidin-1-yl)-5-(trifluoromethyl)phenyl)-5-(pyridin-4-yl)furan-2-carboxamide], the IC50 against CYP2D6 came to 3.45 µM; at CYP3A4, 4900 nM; at CYP1A2, 23200 nM; against SRPK1 it was 5 nM; on CYP2C9, 2480 nM; on CYP2C19, 2480 nM.
As to `CC1(O)CCN(c2ccc(Cl)cc2NC(=O)c2ccc(-c3ccncc3)o2)CC1` [Example 5, N-(5-chloro-2-(4-hydroxy-4-methylpiperidin-1-yl)phenyl)-5-(pyridin-4-yl)furan-2-carboxamide], the IC50 came out at 5.13 µM at CYP2D6; 670 nM at CYP3A4; 8130 nM at CYP1A2; 0.5 nM against SRPK1; 660 nM at CYP2C9; 2180 nM at CYP2C19.
